According to patent US20230140290A1, “SALICYLAMIDE DERIVATIVES AND RELATED METHODS OF MAKING” (THE BOARD OF REGENTS OF THE UNIVERSITY OF TEXAS SY, priority 2020, published 2023):
Structures can show the parent of a compound that is named as a salt.

Key:
[1] = tested on: HAdV5-GFP; experiment: Plaque assay (inhibition of HAdV plaque formation); type: cell-based, HAdV-5; details: for Selectivity index (SI): ratio of CC50 to IC50 in plaque assay; for inhibition at 10 µM: read-out: Plaque Assay (%) Inhibition (10 μM); for IC50: read-out: Plaque Assay IC50 (μM), HAdV5-GFP, low MOI, 293β5 cell line; for EC50: read-out: EC50 (plaque assay)
Procedure: Plaque Assay. […] When cells reached 80-90% confluency, they were infected with HAdV5-GFP (0.06 vp/cell) and rocked for 2 h at 37° C. After the incubation the inoculum was removed, and the cells were washed once with PBS.
Plaque Assay. Compounds were tested using low MOI infections (0.06 vp/cell) and at concentrations of 10 μM and in a dose-response assay ranging from 10 to 0.3 μM in a plaque assay. […] When cells reached 80-90% confluency, they were infected with HAdV5-GFP (0.06 vp/cell) and rocked for 2 h at 37° C. After the incubation the inoculum was removed, and the cells were washed once with PBS. […] The mixture also contained the compounds in concentrations ranging from 10 to 0.3 μM.

[2] = tested on: A549 cells; experiment: Cytotoxicity assay (AlamarBlue); details: read-out: CC50 (μM), cytotoxic concentration 50%; A549 cell line, 48 h
Procedure: Cytotoxicity Assay. The cytotoxicity of the compounds was analyzed by commercial kit AlamarBlue® (Invitrogen, Ref. DAL1025). A549 cells at a density of 5×10^3 cells per well in 96-well plates were seeded. […] Cells were then incubated at 37° C. for 48 h following the kit protocol. The cytotoxic concentration 50 (CC50) value was obtained using the statistical package GraphPad Prism. This assay was performed in duplicate.

SMILES	inhibition at 10 µM [1] [%]	also measured
O=C(Nc1ccc(NC2CCCCC2)cc1Cl)c1cc(Cl)ccc1O [Compound 88, 5-Chloro-N-(2-chloro-4-(cyclohexylamino)phenyl)-2-hydroxybenzamide]	99.5 ± 0.7	Selectivity index (SI) [1]: 51.1; IC50 [1]: 1.34 µM; CC50 [2]: 68.3 µM
NCCNc1ccc(NC(=O)c2cc(Cl)ccc2O)c(Cl)c1 [Compound 123, N-(4-((2-Aminoethyl)amino)-2-chlorophenyl)-5-chloro-2-hydroxybenzamide hydrochloride]	19.4 ± 12.2	–
CC(C)[C@H](NC(=O)c1cc(Cl)ccc1O)C(=O)Nc1cc(F)cc(C(F)(F)F)c1 [Compound 67, (S)-5-Chloro-N-(1-((3-fluoro-5-(trifluoromethyl)phenyl)amino)-3-methyl-1-oxobutan-2-yl)-2-hydroxybenzamide]	95.8 ± 5.9	Selectivity index (SI) [1]: 65.2; IC50 [1]: 0.66 µM; CC50 [2]: 43 µM
CCCNc1ccc(NC(=O)c2cc(Cl)ccc2O)c(Cl)c1 [Compound 80, 5-Chloro-N-(2-chloro-4-(propylamino)phenyl)-2-hydroxybenzamide]	100	Selectivity index (SI) [1]: 4.5; IC50 [1]: 5.04 µM; CC50 [2]: 22.5 ± 10.6 µM
O=C(c1cc(Cl)ccc1O)N1CCCCC1 [Compound 171]	–	Plaque Assay (%) Inhibition (10 μM) ([1]; HAdV5-GFP, 10 μM, low MOI, 293β5 cell line): 0.00 ± 0.00%
O=C(NCc1ccc([N+](=O)[O-])cc1Cl)c1cc(Cl)ccc1O [Compound 30, 5-Chloro-N-(2-chloro-4-nitrobenzyl)-2-hydroxybenzamide]	100	IC50 [1]: 1.4 ± 0.11 µM; CC50 [2]: 51.4 ± 3.7 µM
CC(C)(C)OC(=O)CC[C@H](NC(=O)c1cc(Cl)ccc1O)C(=O)Nc1ccc([N+](=O)[O-])cc1Cl [Compound 64, (S)-tert-Butyl 4-(5-chloro-2-hydroxybenzamido)-5-((2-chloro-4-nitrophenyl)amino)-5-oxopentanoate]	97.3 ± 0.3	Selectivity index (SI) [1]: 34.2; IC50 [1]: 0.67 µM; CC50 [2]: 22.9 µM
O=C(NC1CCCCCC1)c1cc(Cl)ccc1O [Compound 158, 5-Chloro-N-cycloheptyl-2-hydroxybenzamide]	–	EC50 [1]: 4700 nM
O=C(Cc1cc(Cl)ccc1O)Nc1ccc(NC2CCCC2)cc1Cl [Compound 146, 2-(5-Chloro-2-hydroxyphenyl)-N-(2-chloro-4-(cyclopentylamino)phenyl)acetamide]	85.8 ± 5.8	–
O=C(Nc1ccc(NC2CCNCC2)cc1Cl)c1cc(Cl)ccc1O [Compound 125, 5-Chloro-N-(2-chloro-4-(piperidin-4-ylamino)phenyl)-2-hydroxybenzamide hydrochloride]	39.7 ± 13.5	–
O=C(NC1CCOCC1)c1cc(Cl)ccc1O [Compound 159, 5-Chloro-2-hydroxy-N-(tetrahydro-2H-pyran-4-yl)benzamide]	0	–
O=C(NCC1CCOCC1)c1cc(Cl)ccc1O [Compound 163, 5-Chloro-2-hydroxy-N-((tetrahydro-2H-pyran-4-yl)methyl)benzamide]	0	–
O=C(NCc1cccc(Cl)c1)c1cc(Cl)ccc1O [Compound 39, 5-Chloro-N-(3-chlorobenzyl)-2-hydroxybenzamide]	72 ± 1.5	–
O=C(Nc1ccc(NCCN2CCOCC2)cc1Cl)c1cc(Cl)ccc1O [Compound 129, 5-Chloro-N-(2-chloro-4-((2-morpholinoethyl)amino)phenyl)-2-hydroxybenzamide]	1.4 ± 12.3	–
O=C(NCCC1CCCCC1)c1cc(Cl)ccc1O [Compound 165, 5-Chloro-N-(2-cyclohexylethyl)-2-hydroxybenzamide]	–	EC50 [1]: 1000 nM; IC50 [1]: 1 ± 0.1 µM
O=C(Nc1ccc(NC2CCCC2)cc1Cl)c1cccc(Cl)c1 [Compound 137, 3-Chloro-N-(2-chloro-4-(cyclopentylamino)phenyl)benzamide]	82.9	–
O=C(NCc1ccc(F)cc1F)c1cc(Cl)ccc1O [Compound 33, 5-Chloro-N-(2,4-difluorobenzyl)-2-hydroxybenzamide]	74.7 ± 6.9	–
CC(=O)Nc1ccc(NC(=O)c2cc(Cl)ccc2O)c(Cl)c1 [Compound 77, N-(4-Acetylamino-2-chlorophenyl)-5-chloro-2-hydroxybenzamide]	0	–
Nc1ccc(NC(=O)c2cc(Cl)ccc2O)c(Cl)c1 [Compound 76, N-(4-Amino-2-chlorophenyl)-5-chloro-2-hydroxybenzamide]	0	–
O=C(NCCN1CCOCC1)c1cc(Cl)ccc1O [Compound 168, 5-Chloro-2-hydroxy-N-(2-morpholinoethyl)benzamide]	0	EC50 [1]: 3730 nM

SMILES	inhibition at 10 µM [1] [%]	also measured
COc1ccc(Cl)cc1C(=O)Nc1ccc(NC2CCCC2)cc1Cl [Compound 138, 5-Chloro-N-(2-chloro-4-(cyclopentylamino)phenyl)-2-methoxybenzamide]	78.9	–
O=C(Cc1cc(Cl)ccc1O)Nc1ccc([N+](=O)[O-])cc1Cl [Compound 54, 2-(5-Chloro-2-hydroxyphenyl)-N-(2-chloro-4-nitrophenyl)acetamide]	0	–
CSCC[C@H](NC(=O)c1cc(Cl)ccc1O)C(=O)Nc1ccc([N+](=O)[O-])cc1Cl [Compound 63, (S)-5-Chloro-N-(1-((2-chloro-4-nitrophenyl)amino)-4-(methylthio)-1-oxobutan-2-yl)-2-hydroxybenzamide]	34.8 ± 16.9	–
CC(C)[C@H](NC(=O)c1cc(Cl)ccc1O)C(=O)Nc1ccc(C(F)(F)F)cc1Cl [Compound 66, (S)-5-Chloro-N-(1-((2-chloro-4-(trifluoromethyl)phenyl)amino)-3-methyl-1-oxobutan-2-yl)-2-hydroxybenzamide]	24.8 ± 12.3	–
O=C(NCc1ccccc1)c1cc(Cl)ccc1O [Compound 45, N-Benzyl-5-chloro-2-hydroxybenzamide]	12.7 ± 2.9	–
O=C(Nc1ccc(NC2CCCC2)cc1Cl)c1ccccc1O [Compound 135, N-(2-Chloro-4-(cyclopentylamino)phenyl)-2-hydroxybenzamide]	77.5	–
COc1ccc([C@@H](C)NC(=O)c2cc(Cl)ccc2O)cc1 [Compound 50, (R)-5-Chloro-2-hydroxy-N-(1-(4-methoxyphenyl)ethyl)benzamide]	33.5 ± 14.8	–
CN1CCC(CNc2ccc(NC(=O)c3cc(Cl)ccc3O)c(Cl)c2)CC1 [Compound 128, 5-Chloro-N-(2-chloro-4-(((1-methylpiperidin-4-yl)methyl)amino)phenyl)-2-hydroxybenzamide]	0	–
C[C@H](NC(=O)c1cc(Cl)ccc1O)C1CCCCC1 [Compound 162, (S)-5-chloro-N-(1-cyclohexylethyl)-2-hydroxybenzamide]	100	EC50 [1]: 510 nM
CN1CCN(CCNC(=O)c2cc(Cl)ccc2O)CC1 [Compound 167, 5-Chloro-2-hydroxy-N-(2-(4-methylpiperazin-1-yl)ethyl)benzamide]	0	–
CN1CCN(C(=O)c2cc(Cl)ccc2O)CC1 [Compound 173, (5-Chloro-2-hydroxyphenyl)(4-methylpiperazin-1-yl)methanone]	0	–
O=C(Nc1ccc([N+](=O)[O-])c(Cl)c1)c1cc(Cl)ccc1O [Compound 10, 5-Chloro-N-(3-chloro-4-nitrophenyl)-2-hydroxybenzamide]	100	IC50 [1]: 1 µM
O=C(NCc1ccc(F)c(F)c1)c1cc(Cl)ccc1O [Compound 34, 5-Chloro-N-(3,4-difluorobenzyl)-2-hydroxybenzamide]	37.2 ± 23.4	–
CN(Cc1ccc(F)cc1)C(=O)c1cc(Cl)ccc1O [Compound 41, 5-Chloro-N-(4-fluorobenzyl)-2-hydroxy-N-methylbenzamide]	0	–
CC(=O)N1CCN(C(=O)c2cc(Cl)ccc2O)CC1 [Compound 172, 1-(4-(5-Chloro-2-hydroxybenzoyl)piperazin-1-yl)ethanone]	0	–
CN1CCC(Oc2ccc(Cl)cc2C(=O)Nc2ccc(NC3CCCC3)cc2Cl)CC1 [Compound 139, 5-Chloro-N-(2-chloro-4-(cyclopentylamino)phenyl)-2-((1-methylpiperidin-4-yl)oxy)benzamide]	0	–
CS(=O)(=O)Nc1ccc(Cl)cc1C(=O)N[C@@H](Cc1ccccc1)C(=O)Nc1ccc([N+](=O)[O-])cc1Cl [Compound 71, (S)-5-Chloro-N-(1-((2-chloro-4-nitrophenyl)amino)-1-oxo-3-phenylpropan-2-yl)-2-(methylsulfonamido)benzamide]	88.9 ± 15.7	–
CC(C)C[C@H](NC(=O)c1cc(Cl)ccc1O)C(=O)Nc1ccc([N+](=O)[O-])cc1Cl [Compound 61, (S)-5-Chloro-N-(1-((2-chloro-4-nitrophenyl)amino)-4-methyl-1-oxopentan-2-yl)-2-hydroxybenzamide]	17.4 ± 12.3	–
O=C(Nc1ccc(NCC2CCNCC2)cc1Cl)c1cc(Cl)ccc1O [Compound 127, 5-Chloro-N-(2-chloro-4-((piperidin-4-ylmethyl)amino)phenyl)-2-hydroxybenzamide]	20.6 ± 10.3	–
O=C(NCc1ccc(F)cc1)c1cc(Cl)ccc1O [Compound 40, 5-Chloro-N-(4-fluorobenzyl)-2-hydroxybenzamide]	72 ± 3	–
